Source: ChEMBL document CHEMBL3797129, “Dysiherbols A-C and Dysideanone E, Cytotoxic and NF-κB Inhibitory Tetracyclic Meroterpenes from a Dysidea sp. Marine Sponge” (J Nat Prod, 2016)

Columns and labels:
[1] = Inhibition of TNF alpha-induced NF-kappaB (unknown origin) activation in HEK293 cells after 6 hrs by luciferase reporter gene assay; format: cell-based; settings: Homo sapiens, HEK293, 6 h
[2] = Cytotoxicity against human NCI-H929 cells after 48 hrs by MTS assay; format: functional, cell-based; settings: NCI-H929, 48 h

IC50 [1] [µM] | SMILES | IC50 [2] [µM]
5.9 | C[C@@H]1CC[C@]2(C)[C@@]3(CC[C@H](O)[C@]2(C)O)c2c(O)ccc(O)c2C[C@@]13C | 15
0.49 | C[C@@H]1CC[C@]2(C)[C@@]3(CCC[C@]2(C)O)c2c(O)ccc(O)c2C[C@@]13C | 0.58
6.4 | C[C@@H]1CC[C@]2(C)[C@@]3(CCC(=O)[C@]2(C)O)c2c(O)ccc(O)c2C[C@@]13C | 12
> 10 | C=C1CC[C@H]2[C@H]3[C@](C)(CC4=CC(=O)C=C[C@@]42O)[C@@H](C)CC[C@]13C | 25
> 10 | CC1=CCC[C@H]2[C@](C)(Cc3cc(O)ccc3O)[C@@H](C)CC[C@]12C [AVAROL] | 3.32

SMILES | IC50 [1] [µM] | IC50 [2] [µM]
COc1ccc([C@@]23Oc4cc(OC)cc(OC)c4[C@]2(O)[C@H](O)[C@H](C(=O)N(C)C)[C@H]3c2ccccc2)cc1 [ROCAGLAMIDE] | 2.6 | 3.9
